Results on six molecules are retold here after US11370847B2, “Single domain antibodies directed against intracellular antigens” (Singh Biotechnology, LLC, priority 2014, dated 2022).

Values joined by “and” are separate entries in the source; they are usually repeats but may differ in a detail not shown here. Equal entries are not always repeated. Where two headings read alike, the source gives them in different places.

The inhibition is the change of the read-out against control, counted positive when it falls.

The test system of one experiment is STAT3. The experiment can be described thus: STAT3 reporter GloResponse SIE-luc2P/HEK293 assay, IL-6 induction.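 On all read-outs here: SIE-luc2P/HEK293 reporter cells stimulated with IL-6 at 40 ng/mL (EC80) after pretreatment, luciferase luminescence (RLU) read the following day, triplicate wells.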 The experiment is classed as cell-based. As to conditions: for effect on IL-6 induction of the STAT3 reporter: 24 and 48 hours treatment, VHH13 and VHH69 at highest concentration, VHH14 at both concentrations.
For another experiment, the system named is PANC-1 cells. Description: MTT proliferation assay, PANC-1. As to conditions: for Abs: 72 hours.
The subject of a further experiment is SJSA-1 cells. The experiment can be described thus: MTT proliferation assay, SJSA-1. The experiment is classed as cell-based, human. As to conditions: SJSA-1; 72 hours; 50 μg/ml.
The next experiment deals with MDA-MB-231 cells. The experiment can be described thus: MTT proliferation assay, MDA-MB-231.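 On all read-outs here: proliferation of cultured human cancer cells read by MTT, with treated groups compared against a vehicle control group.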 The experiment is classed as cell-based, human. As to conditions: for Mean: mean absorbance. For orientation: Tetrazolium dyes change colour on reduction, which living cells bring about.
Where [1] appears, read: 24 Hour Treatment Prior to IL6 Induction, higher conc.: VHH13 55.8 μg/mL, VHH14 84.3 μg/mL, BB1608 4.16 μM, VHH69 50.5 μg/mL.
Where [2] appears, read: 24 Hour Treatment Prior to IL6 Induction, lower conc.: VHH13, VHH14, VHH69 10 μg/mL, BB1608 2 μM.
Setting [3] is: 48 Hour Treatment Prior to IL6 Induction, higher conc.: VHH13 55.8 μg/mL, VHH14 84.3 μg/mL, BB1608 4.16 μM, VHH69 50.5 μg/mL.
[4] abbreviates: 48 Hour Treatment Prior to IL6 Induction, lower conc.: VHH13, VHH14, VHH69 10 μg/mL, BB1608 2 μM.
[5] abbreviates: Homo sapiens, PANC-1, 72 h, read-out: % Inhibition, Growth Inhibition of PANC-1 Cells.

With `CC(=O)c1cc2c(o1)C(=O)c1ccccc1C2=O` [BBI608, napabucasin, reference compound], the “Average RLU” value in the experiment on STAT3 (setting [1]) and with STAT3 (setting [4]) was 33 RLU in each case. Also, the “Luminescence (replicate wells)” value in the experiment on STAT3 (setting [1]) was 41 RLU and 28 RLU and 31 RLU; in the experiment with STAT3 (setting [2]), 41 RLU and 33 RLU and 39 RLU; in the experiment with STAT3 (setting [3]), 32 RLU and 25 RLU and 31 RLU; in the experiment on STAT3 (setting [4]), 31 RLU and 26 RLU and 42 RLU. Also, the “Fold-Induction RLU/RLU of −IL6” value in the experiment with STAT3 (setting [2]) and in the experiment on STAT3 (setting [3]) was 0 each time. Besides, the “effect on IL-6 induction of the STAT3 reporter” value with STAT3 is reported as “Inhibition of IL-6”.

Consider `Nc1ccn([C@@H]2O[C@H](CO)[C@@H](O)C2(F)F)c(=O)n1` [Gemcitabine], for which the Abs in the experiment with PANC-1 cells (Gemcitabine Hydrochloride (Biovision #1759) 0.020 μM alone) was 1.631; in the experiment on PANC-1 cells (Gemcitabine Hydrochloride (Biovision #1759) 0.039 μM alone), 1.550; in the experiment on PANC-1 cells (Gemcitabine Hydrochloride (Biovision #1759) 0.313 μM alone), 1.084; in the experiment with PANC-1 cells (Gemcitabine Hydrochloride (Biovision #1759) 0.625 μM alone), 1.001; with PANC-1 cells (Gemcitabine Hydrochloride (Biovision #1759) 5 μM alone), 0.654; with PANC-1 cells (Gemcitabine Hydrochloride (Biovision #1759) 10 μM alone), 0.576. The molecule further registered an inhibition at 0.02 µM with PANC-1 cells (Homo sapiens, PANC-1) of 0%. For the same molecule, 0.039 µM produced 0% inhibition in the experiment on PANC-1 cells (Homo sapiens, PANC-1). The molecule further showed an inhibition at 0.313 µM in the experiment on PANC-1 cells (Homo sapiens, PANC-1) of 5%. Also, in the experiment with PANC-1 cells (Homo sapiens, PANC-1), testing at 0.625 µM gave an inhibition of 0%. Moreover, the inhibition at 5 µM in the experiment with PANC-1 cells (Homo sapiens, PANC-1) came out at 40%; in the experiment on PANC-1 cells (setting [5]), 38%. Moreover, the inhibition at 10 µM in the experiment on PANC-1 cells (Homo sapiens, PANC-1) was determined as 48%; in the experiment with PANC-1 cells (setting [5]) it was 35%; in the experiment on PANC-1 cells (Homo sapiens, PANC-1, 72 h, read-out: growth inhibition of PANC-1 cells), 48%.

For “Curirx P04: SBT-100 produced by Curirx, P04 buffer sample”, the “growth inhibition” value with SJSA-1 cells is listed as “significant growth inhibition”.

Consider “MPT B1 (pH 5.0): SBT-100 produced by Microprotein Technologies”, for which, in the experiment on MDA-MB-231 cells (MDA-MB-231, 50 μg/ml), the “MTT absorbance, single replicates” value is 0.924 and 0.741 and 0.834 and 0.749 and 0.771 and 0.77; the Mean is 0.798. In addition, in the experiment on MDA-MB-231 cells (MDA-MB-231, 100 μg/ml), the “MTT absorbance, single replicates” value was 0.65 and 0.656 and 0.624; the Mean was determined as 0.643.

Take “MPT His Tag: SBT-100 produced by Microprotein Technologies, His tag preparation”: the “inhibition compared with other SBT-100 preparations” value with MDA-MB-231 cells (MDA-MB-231) was “greatest inhibition”. The “MTT absorbance, single replicates” value in the experiment with MDA-MB-231 cells (MDA-MB-231, 50 μg/ml) is 0.095 and 0.091 and 0.102 and 0.1 and 0.087 and 0.092; in the experiment on MDA-MB-231 cells (MDA-MB-231, 100 μg/ml), 0.74 and 0.8 and 0.82. Besides, the Mean is 0.0945 with MDA-MB-231 cells (MDA-MB-231, 50 μg/ml) and 0.079 in the experiment with MDA-MB-231 cells (MDA-MB-231, 100 μg/ml).

B1: anti-STAT3 VHH14: second anti-STAT3 sdAb, SEQ ID NO:4 (protein)
VHH: QVQLVESGGGSVQAGGSLRLSCVASTYTGCMGWFRQAPGKEREGVAALSSRGFAGHYTDSVKGRFSISRDYVKNAVYLQMNTVKPEDAAMYYCAAREGWECGETWLDRTAGGHTYWGQGTLVTVSS
modifications: Camelid
On to B1, for which the “effect on IL-6 induction of the STAT3 reporter” value in the experiment with STAT3 is “enhancement of the IL-6 induction”.
